In patent US20130204033A1, “ANTIPROLIFERATIVE COMPOUNDS, CONJUGATES THEREOF, METHODS THEREFOR, AND USES THEREOF” (Medarex, Inc., priority 2009, published 2013):
Read-outs that look alike come from different tables or passages of the source.

Key:
Format in all cases: cell-based, human
[1] = test system: BT474; test: ATP luminescence proliferation assay, BT474
Protocol: (§1) This example generally describes the procedures used to assay the antiproliferative activity of compounds of this invention or their conjugates. Human tumor cell lines were obtained from the American Type Culture Collection (ATCC), P.O. Box 1549, Manassas, Va. 20108, USA, and cultured according to instruction from the ATCC. Cells were seeded at 1.0×10^3 or 1.0×10^4 cells/well in 96-well plates for 3 h for ATP assays or ^3H thymidine assays, respectively. 1:3 serial dilutions of free (unconjugated) compounds or their conjugates were added to the wells. Plates were allowed to incubate for 24 to 72 h. The ^3H thymidine plates were pulsed with 1.0 μCi of ^3H-thymidine per well for the last 24 hours of the total incubation period, harvested, and read on a Top Count Scintillation Counter (Packard Instruments, Meriden, Conn.). ATP levels in the ATP plates were measured using the […]-GLO® Luminescent Cell Viability kit following the manufacturer's manual and read on a GLOMAX® 20/20 luminometer (both from Promega, Madison, Wis., USA). The EC50 values—the concentration at which an agent inhibits or reduces cell proliferation by 50% —were determined using PRISM™ software, version 4.0 (GraphPad Software, La Jolla, Calif., USA).
(§2) Using the ^3H thymidine or the ATP luminescence assay, or both, the activities of compounds of this invention were assayed against the following cancer cell lines: HCT-15 (colorectal cancer, multi-drug resistant (MDR)); Hep3B (liver cancer); LNCaP (prostate cancer, androgen receptor positive (AR^+)); MDA-MB-231 (breast cancer, estrogen receptor, progesterone receptor, and Her2 negative (triple negative)); A2058 (melanoma); U-87 MG (glioblastoma); NCI-H460 (NSCLC); A549 (NSCLC); HPAC (pancreatic cancer, primary); PC3 (prostate cancer, AR); BT474 (breast cancer, Her2 highly positive (Her2hi)); SKOV3 (ovarian cancer, Her2hi); 786-O (renal cancer); UO-31 (renal cancer, MDR); NCI-H740 (SCLC); DMS53 (SCLC); SK-BR3 (breast cancer, Her2hi); ZR-75 (breast cancer, estrogen receptor positive); OVCAR3 (ovarian cancer); HL-60 (APL); OVCAR8/Adr (ovarian cancer, MDR); CEM-Cl (ALL); Nomo-1 (AML); RPMI-8226 (MM)); Raji (lymphoma); SW-480 (colorectal cancer, metastatic); SW-620 (colorectal cancer); and H226 (lung cancer). (Not all compounds were assayed against all cell lines.)
(§3) Table 3 provides the data for the ATP luminescence proliferation assays, with an incubation period of 48, 72, or 96 h, as noted.

[2] = test system: HCT-15; test: 3H thymidine proliferation assay, HCT-15
Protocol: as §1, §2
(§4) Table 2 provides the data for proliferation assays using the ^3H thymidine method, with an incubation period of 72 h.

[3] = test system: HPAC; test: 3H thymidine proliferation assay, HPAC
Protocol: as §1, §2, §4

[4] = test system: DMS53; test: ATP luminescence proliferation assay, DMS53
Protocol: as §1, §2, §3

[5] = test system: SK-BR3; test: ATP luminescence proliferation assay, SK-BR3
Protocol: as §1, §2, §3

[6] = test system: MDA-MB-231; test: 3H thymidine proliferation assay, MDA-MB-231
Protocol: as §1, §2, §4

[7] = test system: RPMI-8226; test: ATP luminescence proliferation assay, RPMI-8226
Protocol: as §1, §2, §3

[8] = test system: CEM-C1; test: 3H thymidine proliferation assay, CEM-C1
Protocol: as §1, §2, §4

[9] = test system: H740; test: 3H thymidine proliferation assay, H740
Protocol: as §1, §2, §4

[10] = test system: LNCaP; test: 3H thymidine proliferation assay, LNCaP
Protocol: as §1, §2, §4

[11] = test system: Hep3B; test: 3H thymidine proliferation assay, Hep3B
Protocol: as §1, §2, §4

[12] = test system: MDA-MB-231; test: ATP luminescence proliferation assay, MDA-MB-231
Protocol: as §1, §2, §3

[13] = test system: Nomo-1; test: ATP luminescence proliferation assay, Nomo-1
Protocol: as §1, §2, §3

[14] = test system: 786-O; test: ATP luminescence proliferation assay, 786-O
Protocol: as §1, §2
FIGS. 12a and 12b show illustrative plots for ATP luminescence proliferation assays for a second set of compounds of this invention, against HL-60 and 786-O cells, respectively, with an incubation period of 72 h. FIGS. 12c and 12d show the plots for ^3H thymidine proliferation assays for the same set of compounds, again against HL-60 and 786-O cells, respectively, with a 72 h incubation period. In each instance, doxorubicin was used as a comparative compound.
as §3

[15] = test system: DMS53; test: 3H thymidine proliferation assay, DMS53
Protocol: as §1, §2, §4

[16] = test system: A2058; test: ATP luminescence proliferation assay, A2058
Protocol: as §1, §2, §3

[17] = test system: Nomo-1; test: 3H thymidine proliferation assay, Nomo-1
Protocol: as §1, §2, §4

[18] = Homo sapiens, BT-474, 48 h, read-out: EC50 BT474 (48 h), ATP luminescence, BT474, 48 h incubation
[19] = Homo sapiens, HCT-15, read-out: EC50, HCT-15, 3H thymidine method, 72 h incubation
[20] = Homo sapiens, HPAC, read-out: EC50, HPAC, 3H thymidine method, 72 h incubation
[21] = Homo sapiens, DMS-53, 48 h, read-out: EC50 DMS53 (48 h), ATP luminescence, DMS53, 48 h incubation
[22] = Homo sapiens, SK-BR-3, 48 h, read-out: EC50 SK-BR3 (48 h), ATP luminescence, SK-BR3, 48 h incubation
[23] = Homo sapiens, MDA-MB-231, read-out: EC50, MDA-MB-231, 3H thymidine method, 72 h incubation
[24] = Homo sapiens, RPMI-8226, 72 h, read-out: EC50 RPMI-8226 (72 h), ATP luminescence, RPMI-8226, 72 h incubation
[25] = Homo sapiens, CEM/C1, read-out: EC50, CEM-C1, 3H thymidine method, 72 h incubation
[26] = Homo sapiens, read-out: EC50, H740, 3H thymidine method, 72 h incubation
[27] = Homo sapiens, LNCaP, read-out: EC50, LNCaP, 3H thymidine method, 72 h incubation
[28] = Homo sapiens, Hep3B, read-out: EC50, Hep3B, 3H thymidine method, 72 h incubation
[29] = Homo sapiens, 786-0, 72 h, read-out: EC50 786-O (72 h), ATP luminescence, 786-O, 72 h incubation
[30] = Homo sapiens, DMS-53, read-out: EC50, DMS53, 3H thymidine method, 72 h incubation
[31] = Homo sapiens, NOMO-1, read-out: EC50, Nomo-1, 3H thymidine method, 72 h incubation
[32] = ATP luminescence, BT474, 48 h incubation, read-out: EC50 BT474 (48 h)
[33] = 3H thymidine method, 72 h incubation, read-out: EC50, HCT-15
[34] = 3H thymidine method, 72 h incubation, read-out: EC50, HPAC
[35] = ATP luminescence, DMS53, 48 h incubation, read-out: EC50 DMS53 (48 h)
[36] = ATP luminescence, SK-BR3, 48 h incubation, read-out: EC50 SK-BR3 (48 h)
[37] = 3H thymidine method, 72 h incubation, read-out: EC50, MDA-MB-231
[38] = ATP luminescence, RPMI-8226, 72 h incubation, read-out: EC50 RPMI-8226 (72 h)
[39] = 3H thymidine method, 72 h incubation, read-out: EC50, CEM-C1
[40] = 3H thymidine method, 72 h incubation, read-out: EC50, H740
[41] = 3H thymidine method, 72 h incubation, read-out: EC50, LNCaP
[42] = 3H thymidine method, 72 h incubation, read-out: EC50, Hep3B
[43] = ATP luminescence, MDA-MB-231, 48 h incubation, read-out: EC50 MDA-MB-231 (48 h)
[44] = ATP luminescence, Nomo-1, 72 h incubation, read-out: EC50 Nomo-1 (72 h)
[45] = ATP luminescence, 786-O, 72 h incubation, read-out: EC50 786-O (72 h)
[46] = 3H thymidine method, 72 h incubation, read-out: EC50, DMS53
[47] = ATP luminescence, A2058, 48 h incubation, read-out: EC50 A2058 (48 h)
[48] = 3H thymidine method, 72 h incubation, read-out: EC50, Nomo-1

CC[C@H](C)[C@H](NC(=O)[C@H]1CCCCN1C)C(=O)N(C)[C@H](C[C@@H](OC)c1nc(C(=O)NC(Cc2ccccc2)C[C@H](C)C(=O)O)cs1)C(C)C (some centres unmarked) [Compound 15]
EC50 [1, 18]: 3.5 nM
EC50 [2, 19]: 67 nM
EC50 [3, 20]: 3 nM
EC50 [4, 21]: 32 nM
EC50 [5, 22]: 3.9 nM
EC50 [6, 23]: 1.3 nM
EC50 [7, 24]: 2.6 nM
EC50 [8, 25]: 0.93 nM
EC50 [9, 26]: 2.3 nM
EC50 [10, 27]: 27 nM
EC50 [11, 28]: 1.6 nM
EC50 ([12]; Homo sapiens, MDA-MB-231, 48 h, read-out: EC50 MDA-MB-231 (48 h), ATP luminescence, MDA-MB-231, 48 h incubation): 5.6 nM
EC50 ([13]; Homo sapiens, NOMO-1, 72 h, read-out: EC50 Nomo-1 (72 h), ATP luminescence, Nomo-1, 72 h incubation): 2.7 nM
EC50 [14, 29]: 9.4 nM
EC50 [15, 30]: 37 nM
EC50 ([16]; Homo sapiens, A2058, 48 h, read-out: EC50 A2058 (48 h), ATP luminescence, A2058, 48 h incubation): 3.5 nM
EC50 [17, 31]: 2.3 nM

CC[C@H](C)[C@H](NC(=O)[C@H]1CCCCN1C)C(=O)N(C)[C@H](C[C@@H](OC)c1nc(C(=O)N[C@@H](Cc2ccccc2)C(=O)OC)cs1)C(C)C [Compound 16]
EC50 [1, 32]: 19 nM
EC50 [2, 33]: 284 nM
EC50 [3, 34]: > 100 nM
EC50 [4, 35]: 50 nM
EC50 [5, 36]: 6.6 nM
EC50 [6, 37]: > 100 nM
EC50 [7, 38]: 15 nM
EC50 [8, 39]: 11 nM
EC50 [9, 40]: > 100 nM
EC50 [10, 41]: > 100 nM
EC50 [11, 42]: > 100 nM
EC50 [12, 43]: 28 nM
EC50 [13, 44]: 3.1 nM
EC50 [14, 45]: 36 nM
EC50 [15, 46]: > 100 nM
EC50 [16, 47]: 30 nM
EC50 [17, 48]: 1.8 nM

CC[C@H](C)[C@H](NC(=O)[C@H]1CCCCN1C)C(=O)N(COC(=O)CC(C)C)[C@H](C[C@@H](OC(C)=O)c1nc(C(=O)N[C@@H](Cc2ccc(N)cc2)CC(C)C(=O)O)cs1)C(C)C (some centres unmarked) [Compound 54]
EC50 [1, 18]: 4.8 nM
EC50 [2, 19]: 0.44 nM
EC50 [3, 20]: 0.83 nM
EC50 [4, 21]: 7.9 nM
EC50 [5, 22]: 6.2 nM
EC50 [6, 23]: 1.6 nM
EC50 [7, 24]: 1.6 nM
EC50 [8, 25]: 0.38 nM
EC50 [9, 26]: 10 nM
EC50 [10, 27]: 16 nM
EC50 [11, 28]: 0.3 nM
EC50 ([12]; Homo sapiens, MDA-MB-231, 72 h, read-out: EC50 MDA-MB-231 (72 h), ATP luminescence, MDA-MB-231, 72 h incubation): 5.6 nM
EC50 ([13]; Homo sapiens, NOMO-1, 48 h, read-out: EC50 Nomo-1 (48 h), ATP luminescence, Nomo-1, 48 h incubation): 3.1 nM
EC50 [14, 29]: 2.6 nM
EC50 [15, 30]: 2 nM
EC50 ([16]; Homo sapiens, A2058, 72 h, read-out: EC50 A2058 (72 h), ATP luminescence, A2058, 72 h incubation): 1.4 nM
EC50 [17, 31]: 0.77 nM

CC[C@H](C)[C@H](NC(=O)[C@H]1CCCCN1C)C(=O)N(C)[C@H](C[C@@H](OC(C)=O)c1nc(C(=O)N[C@@H](Cc2ccc(N)cc2)C(=O)O)cs1)C(C)C [Compound 56]
EC50 [1, 32]: > 100 nM
EC50 [2, 33]: 2480 nM
EC50 [3, 34]: > 100 nM
EC50 [4, 35]: > 100 nM
EC50 [5, 36]: > 100 nM
EC50 [6, 37]: > 100 nM
EC50 [7, 38]: 5.7 nM
EC50 [8, 39]: > 100 nM
EC50 [9, 40]: > 100 nM
EC50 [10, 41]: > 100 nM
EC50 [11, 42]: > 100 nM
EC50 [12, 43]: > 100 nM
EC50 [13, 44]: > 100 nM
EC50 [14, 45]: > 100 nM
EC50 [15, 46]: > 100 nM
EC50 [16, 47]: > 100 nM
EC50 [17, 48]: > 100 nM
